# Laboratory results: ChEMBL document CHEMBL4811221, “Diosgenin Derivatives as Potential Antitumor Agents: Synthesis, Cytotoxicity, and Mechanism of Action” (J Nat Prod, 2021)
# How the values were obtained:
# A549 = assay: Cytotoxicity against human A549 cells assessed as cell growth inhibition measured after 24 hrs by MTT assay; format: functional, cell-based; settings: A549, 24 h
# MCF7 = assay: Cytotoxicity against human MCF7 cells assessed as cell growth inhibition measured after 24 hrs by MTT assay; format: functional, cell-based; settings: MCF7, 24 h
# HepG2 = assay: Cytotoxicity against human HepG2 cells assessed as cell growth inhibition measured after 24 hrs by MTT assay; format: functional, cell-based; settings: HepG2, 24 h
# L02 = assay: Cytotoxicity against human L02 cells assessed as cell growth inhibition measured after 24 hrs by MTT assay; format: cell-based; settings: L02, 24 h
SMILES,IC50 (A549),IC50 (MCF7),IC50 (HepG2),IC50 (L02)
C[C@@H]1CC[C@@]2(OC1)O[C@H]1C[C@H]3[C@@H]4CC=C5C[C@@H](OC(=O)CCCC(=O)N6CCOCC6)CC[C@]5(C)[C@H]4CC[C@]3(C)[C@H]1[C@@H]2C,8.6 µM,> 10 µM,> 10 µM,–
Cc1ccc(S(=O)(=O)N2CCN(C(=O)CCC(=O)O[C@H]3CC[C@@]4(C)C(=CC[C@H]5[C@@H]6C[C@@H]7O[C@]8(CC[C@@H](C)CO8)[C@@H](C)[C@@H]7[C@@]6(C)CC[C@@H]54)C3)CC2)cc1,4.7 µM,> 10 µM,> 10 µM,–
C[C@@H]1CC[C@@]2(OC1)O[C@H]1C[C@H]3[C@@H]4CC=C5C[C@@H](OC(=O)CCC(=O)N6CCOCC6)CC[C@]5(C)[C@H]4CC[C@]3(C)[C@H]1[C@@H]2C,3.2 µM,> 10 µM,10.4 µM,34.3 µM
C[C@@H]1CC[C@@]2(OC1)O[C@H]1C[C@H]3[C@@H]4CC=C5C[C@@H](OC(=O)/C=C\C(=O)N6CCOCC6)CC[C@]5(C)[C@H]4CC[C@]3(C)[C@H]1[C@@H]2C,5.5 µM,> 10 µM,> 10 µM,–
C[C@@H]1CC[C@@]2(OC1)O[C@H]1C[C@H]3[C@@H]4CC=C5C[C@@H](OC(=O)CCC(=O)N6CCN(S(=O)(=O)C7CC7)CC6)CC[C@]5(C)[C@H]4CC[C@]3(C)[C@H]1[C@@H]2C,4.2 µM,> 10 µM,> 10 µM,–
C[C@@H]1CC[C@@]2(OC1)O[C@H]1C[C@H]3[C@@H]4CC=C5C[C@@H](OC(=O)c6ccccc6C(=O)N6CCCC6)CC[C@]5(C)[C@H]4CC[C@]3(C)[C@H]1[C@@H]2C,–,> 10 µM,> 10 µM,–
C[C@@H]1CC[C@@]2(OC1)O[C@H]1C[C@H]3[C@@H]4CC=C5C[C@@H](OC(=O)c6ccccc6C(=O)N6CCNCC6)CC[C@]5(C)[C@H]4CC[C@]3(C)[C@H]1[C@@H]2C,7.2 µM,8.1 µM,7.5 µM,27.8 µM
Cc1ccc(C[N+]2(Cc3ccc(C)cc3)CCN(C(=O)CCC(=O)O[C@H]3CC[C@@]4(C)C(=CC[C@H]5[C@@H]6C[C@@H]7O[C@]8(CC[C@@H](C)CO8)[C@@H](C)[C@@H]7[C@@]6(C)CC[C@@H]54)C3)CC2)cc1,3.6 µM,> 10 µM,6.1 µM,18.4 µM
C[C@@H]1CC[C@@]2(OC1)O[C@H]1C[C@H]3[C@@H]4CC=C5C[C@@H](OC(=O)c6ccccc6C(=O)N6CCc7ccccc7C6)CC[C@]5(C)[C@H]4CC[C@]3(C)[C@H]1[C@@H]2C,–,> 10 µM,> 10 µM,–
C[C@@H]1CC[C@@]2(OC1)O[C@H]1C[C@H]3[C@@H]4CC=C5C[C@@H](OC(=O)CCC(=O)N6CCCC6)CC[C@]5(C)[C@H]4CC[C@]3(C)[C@H]1[C@@H]2C,–,> 10 µM,> 10 µM,–
C[C@@H]1CC[C@@]2(OC1)O[C@H]1C[C@H]3[C@@H]4CC=C5C[C@@H](OC(=O)/C=C\C(=O)N6CCc7ccccc7C6)CC[C@]5(C)[C@H]4CC[C@]3(C)[C@H]1[C@@H]2C,7.6 µM,–,–,–
CCN(CC)C(=O)CCC(=O)O[C@H]1CC[C@@]2(C)C(=CC[C@H]3[C@@H]4C[C@@H]5O[C@]6(CC[C@@H](C)CO6)[C@@H](C)[C@@H]5[C@@]4(C)CC[C@@H]32)C1,4.5 µM,> 10 µM,> 10 µM,–
C[C@@H]1CC[C@@]2(OC1)O[C@H]1C[C@H]3[C@@H]4CC=C5C[C@@H](OC(=O)/C=C\C(=O)N6CCNCC6)CC[C@]5(C)[C@H]4CC[C@]3(C)[C@H]1[C@@H]2C,–,2.3 µM,> 10 µM,39.1 µM
CC(=O)O[C@H]1C(=O)[C@@]2(C)[C@H]([C@H](OC(=O)c3ccccc3)[C@]3(O)C[C@H](OC(=O)[C@H](O)[C@@H](NC(=O)c4ccccc4)c4ccccc4)C(C)=C1C3(C)C)[C@]1(OC(C)=O)CO[C@@H]1C[C@@H]2O [PACLITAXEL],5.4 µM,–,–,> 100 µM
C[C@@H]1CC[C@@]2(OC1)O[C@H]1C[C@H]3[C@@H]4CC=C5C[C@@H](OC(=O)CCC(=O)N6CC[N+](Cc7ccc(Cl)cc7)(Cc7ccc(Cl)cc7)CC6)CC[C@]5(C)[C@H]4CC[C@]3(C)[C@H]1[C@@H]2C,5.4 µM,> 10 µM,> 10 µM,–
C[C@@H]1CC[C@@]2(OC1)O[C@H]1C[C@H]3[C@@H]4CC=C5C[C@@H](OC(=O)CCCC(=O)N6CCCC6)CC[C@]5(C)[C@H]4CC[C@]3(C)[C@H]1[C@@H]2C,5.6 µM,> 10 µM,8.3 µM,–
C[C@@H]1CC[C@@]2(OC1)O[C@H]1C[C@H]3[C@@H]4CC=C5C[C@@H](OC(=O)CCC(=O)N6CC[N+](Cc7ccc(C(C)(C)C)cc7)(Cc7ccc(C(C)(C)C)cc7)CC6)CC[C@]5(C)[C@H]4CC[C@]3(C)[C@H]1[C@@H]2C,3 µM,6 µM,6.7 µM,21.2 µM

SMILES,IC50 (A549),IC50 (MCF7),IC50 (HepG2),IC50 (L02)
C[C@@H]1CC[C@@]2(OC1)O[C@H]1C[C@H]3[C@@H]4CC=C5C[C@@H](OC(=O)/C=C\C(=O)N6CCCC6)CC[C@]5(C)[C@H]4CC[C@]3(C)[C@H]1[C@@H]2C,–,> 10 µM,> 10 µM,–
CCN(CC)C(=O)c1ccccc1C(=O)O[C@H]1CC[C@@]2(C)C(=CC[C@H]3[C@@H]4C[C@@H]5O[C@]6(CC[C@@H](C)CO6)[C@@H](C)[C@@H]5[C@@]4(C)CC[C@@H]32)C1,–,> 10 µM,> 10 µM,–
C[C@@H]1CC[C@@]2(OC1)O[C@H]1C[C@H]3[C@@H]4CC=C5C[C@@H](OC(=O)CCC(=O)N6CCc7ccccc7C6)CC[C@]5(C)[C@H]4CC[C@]3(C)[C@H]1[C@@H]2C,–,> 10 µM,> 10 µM,–
CCN(CC)C(=O)/C=C\C(=O)O[C@H]1CC[C@@]2(C)C(=CC[C@H]3[C@@H]4C[C@@H]5O[C@]6(CC[C@@H](C)CO6)[C@@H](C)[C@@H]5[C@@]4(C)CC[C@@H]32)C1,7.1 µM,> 10 µM,> 10 µM,–
C[C@@H]1CC[C@@]2(OC1)O[C@H]1C[C@H]3[C@@H]4CC=C5C[C@@H](OC(=O)CCC(=O)N6CCN(S(=O)(=O)c7ccccc7)CC6)CC[C@]5(C)[C@H]4CC[C@]3(C)[C@H]1[C@@H]2C,8.7 µM,> 10 µM,> 10 µM,–
COc1ccc(C[N+]2(Cc3ccc(OC)cc3)CCN(C(=O)CCC(=O)O[C@H]3CC[C@@]4(C)C(=CC[C@H]5[C@@H]6C[C@@H]7O[C@]8(CC[C@@H](C)CO8)[C@@H](C)[C@@H]7[C@@]6(C)CC[C@@H]54)C3)CC2)cc1,5.7 µM,9.3 µM,9.9 µM,23.3 µM
C=CS(=O)(=O)N1CCN(C(=O)CCC(=O)O[C@H]2CC[C@@]3(C)C(=CC[C@H]4[C@@H]5C[C@@H]6O[C@]7(CC[C@@H](C)CO7)[C@@H](C)[C@@H]6[C@@]5(C)CC[C@@H]43)C2)CC1,4.1 µM,> 10 µM,5.1 µM,23.6 µM
C[C@@H]1CC[C@@]2(OC1)O[C@H]1C[C@H]3[C@@H]4CC=C5C[C@@H](OC(=O)CCC(=O)N6CCN(S(=O)(=O)O)CC6)CC[C@]5(C)[C@H]4CC[C@]3(C)[C@H]1[C@@H]2C,–,> 10 µM,> 10 µM,–
C[C@@H]1CC[C@@]2(OC1)O[C@H]1C[C@H]3[C@@H]4CC=C5C[C@@H](O)CC[C@]5(C)[C@H]4CC[C@]3(C)[C@H]1[C@@H]2C [DISOGENIN],> 10 µM,> 10 µM,> 10 µM,–
C[C@@H]1CC[C@@]2(OC1)O[C@H]1C[C@H]3[C@@H]4CC=C5C[C@@H](OC(=O)CCC(=O)N6CC[N+](Cc7ccccc7)(Cc7ccccc7)CC6)CC[C@]5(C)[C@H]4CC[C@]3(C)[C@H]1[C@@H]2C,2.9 µM,9.4 µM,6.4 µM,18.7 µM
CCN(CC)C(=O)CCCC(=O)O[C@H]1CC[C@@]2(C)C(=CC[C@H]3[C@@H]4C[C@@H]5O[C@]6(CC[C@@H](C)CO6)[C@@H](C)[C@@H]5[C@@]4(C)CC[C@@H]32)C1,7.4 µM,> 10 µM,> 10 µM,–
C[C@@H]1CC[C@@]2(OC1)O[C@H]1C[C@H]3[C@@H]4CC=C5C[C@@H](OC(=O)CCC(=O)N6CCN(S(=O)(=O)c7ccc(F)cc7)CC6)CC[C@]5(C)[C@H]4CC[C@]3(C)[C@H]1[C@@H]2C,3.7 µM,> 10 µM,> 10 µM,–
C[C@@H]1CC[C@@]2(OC1)O[C@H]1C[C@H]3[C@@H]4CC=C5C[C@@H](OC(=O)CCCC(=O)N6CCNCC6)CC[C@]5(C)[C@H]4CC[C@]3(C)[C@H]1[C@@H]2C,3.2 µM,6 µM,2 µM,14.8 µM
CCS(=O)(=O)N1CCN(C(=O)CCC(=O)O[C@H]2CC[C@@]3(C)C(=CC[C@H]4[C@@H]5C[C@@H]6O[C@]7(CC[C@@H](C)CO7)[C@@H](C)[C@@H]6[C@@]5(C)CC[C@@H]43)C2)CC1,6.2 µM,> 10 µM,> 10 µM,–
C[C@@H]1CC[C@@]2(OC1)O[C@H]1C[C@H]3[C@@H]4CC=C5C[C@@H](OC(=O)CCCC(=O)N6CCc7ccccc7C6)CC[C@]5(C)[C@H]4CC[C@]3(C)[C@H]1[C@@H]2C,–,> 10 µM,> 10 µM,–
C[C@@H]1CC[C@@]2(OC1)O[C@H]1C[C@H]3[C@@H]4CC=C5C[C@@H](OC(=O)c6ccccc6C(=O)N6CCOCC6)CC[C@]5(C)[C@H]4CC[C@]3(C)[C@H]1[C@@H]2C,–,> 10 µM,> 10 µM,–
